Laboratory results as given in ChEMBL document CHEMBL3132769, “Fragment growing to retain or alter the selectivity of anchored kinase hinge-binding fragments” (Medchemcomm, 2014).

Experiments:
[1] = biological target: Tyrosine-protein kinase HCK (Homo sapiens) (UniProt P08631); assay: Inhibition of human HCK catalytic domain expressed in baculovirus assessed as substrate phosphorylation using fluorescence-labelled peptides as substrate at 95 uM after 90 mins by microfluidic peptide phosphorylation assay
[2] = biological target: Tyrosine-protein kinase ABL2 (Homo sapiens) (UniProt P42684); assay: Inhibition of human truncated Arg expressed in baculovirus assessed as substrate phosphorylation using fluorescence-labelled peptides as substrate at 95 uM after 90 mins by microfluidic peptide phosphorylation assay
[3] = biological target: Mitogen-activated protein kinase 1 (Homo sapiens) (UniProt P28482); assay: Inhibition of human full length ERK2 expressed in Escherichia coli cell assessed as substrate phosphorylation using fluorescence-labelled peptides as substrate at 95 uM after 90 mins by microfluidic peptide phosphorylation assay
[4] = biological target: RAF proto-oncogene serine/threonine-protein kinase (Homo sapiens) (UniProt P04049); assay: Inhibition of human truncated c-Raf expressed in baculovirus assessed as substrate phosphorylation using fluorescence-labelled peptides as substrate at 0.2 uM after 90 mins by microfluidic peptide phosphorylation assay
[5] = biological target: Casein kinase I isoform alpha (Homo sapiens) (UniProt P48729); assay: Inhibition of human full length CSNK1A1 expressed in baculovirus assessed as substrate phosphorylation using fluorescence-labelled peptides as substrate at 2 uM after 90 mins by microfluidic peptide phosphorylation assay
[6] = biological target: T1, Serine/threonine-protein kinase DCLK2 (Homo sapiens) (UniProt Q8N568); assay: Inhibition of human full length DCAMKL2 expressed in baculovirus assessed as substrate phosphorylation using fluorescence-labelled peptides as substrate at 0.06 uM after 90 mins by microfluidic peptide phosphorylation assay
T1 sequence (whole entry): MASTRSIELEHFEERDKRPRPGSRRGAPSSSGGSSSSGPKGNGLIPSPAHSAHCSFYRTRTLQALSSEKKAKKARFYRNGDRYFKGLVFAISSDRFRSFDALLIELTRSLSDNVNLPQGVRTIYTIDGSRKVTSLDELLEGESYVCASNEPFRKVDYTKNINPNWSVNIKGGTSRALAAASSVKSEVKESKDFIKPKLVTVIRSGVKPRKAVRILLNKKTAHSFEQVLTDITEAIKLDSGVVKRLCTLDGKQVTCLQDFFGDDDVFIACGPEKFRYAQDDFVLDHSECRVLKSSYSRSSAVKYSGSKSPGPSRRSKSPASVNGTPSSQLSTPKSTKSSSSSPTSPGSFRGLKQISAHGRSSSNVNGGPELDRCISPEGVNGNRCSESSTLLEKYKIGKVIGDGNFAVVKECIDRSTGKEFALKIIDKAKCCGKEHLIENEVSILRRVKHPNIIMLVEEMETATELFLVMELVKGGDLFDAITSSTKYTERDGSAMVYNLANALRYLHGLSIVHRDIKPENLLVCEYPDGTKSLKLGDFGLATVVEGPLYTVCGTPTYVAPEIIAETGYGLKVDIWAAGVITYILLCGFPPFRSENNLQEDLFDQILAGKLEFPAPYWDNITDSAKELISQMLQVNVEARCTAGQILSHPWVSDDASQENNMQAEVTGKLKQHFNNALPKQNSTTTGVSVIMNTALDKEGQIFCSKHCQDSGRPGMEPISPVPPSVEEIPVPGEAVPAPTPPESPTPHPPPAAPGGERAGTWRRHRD

[7] = biological target: T2, Serine/threonine-protein kinase Chk1 (Homo sapiens) (UniProt O14757); assay: Inhibition of human full length CHK1 expressed in baculovirus assessed as substrate phosphorylation using fluorescence-labelled peptides as substrate at 0.06 uM after 90 mins by microfluidic peptide phosphorylation assay
T2 sequence (whole entry): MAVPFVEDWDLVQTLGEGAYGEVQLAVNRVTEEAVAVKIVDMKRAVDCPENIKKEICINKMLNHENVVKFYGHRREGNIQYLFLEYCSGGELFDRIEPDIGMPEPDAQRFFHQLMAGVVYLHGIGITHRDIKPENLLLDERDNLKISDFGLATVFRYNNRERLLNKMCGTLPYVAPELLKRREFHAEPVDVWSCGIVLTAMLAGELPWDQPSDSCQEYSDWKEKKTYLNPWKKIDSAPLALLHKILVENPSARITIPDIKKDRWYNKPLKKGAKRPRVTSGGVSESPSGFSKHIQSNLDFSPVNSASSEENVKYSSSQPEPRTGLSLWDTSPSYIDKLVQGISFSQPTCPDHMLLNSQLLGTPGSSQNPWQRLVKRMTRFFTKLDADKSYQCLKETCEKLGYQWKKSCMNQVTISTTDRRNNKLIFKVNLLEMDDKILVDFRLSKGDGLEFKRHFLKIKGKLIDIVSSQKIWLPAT

[8] = biological target: Mitogen-activated protein kinase 3 (Homo sapiens) (UniProt P27361); assay: Inhibition of human full length ERK1 expressed in Escherichia coli cell assessed as substrate phosphorylation using fluorescence-labelled peptides as substrate at 0.06 uM after 90 mins by microfluidic peptide phosphorylation assay
[9] = biological target: Epidermal growth factor receptor (Homo sapiens) (UniProt P00533); assay: Inhibition of human EGFR catalytic domain expressed in baculovirus assessed as substrate phosphorylation using fluorescence-labelled peptides as substrate at 420 uM after 90 mins by microfluidic peptide phosphorylation assay
[10] = biological target: T3, Serine/threonine-protein kinase BRSK1 (Homo sapiens) (UniProt Q8TDC3); assay: Inhibition of human full length BRSK1 expressed in baculovirus assessed as substrate phosphorylation using fluorescence-labelled peptides as substrate at 420 uM after 90 mins by microfluidic peptide phosphorylation assay
T3 sequence (whole entry): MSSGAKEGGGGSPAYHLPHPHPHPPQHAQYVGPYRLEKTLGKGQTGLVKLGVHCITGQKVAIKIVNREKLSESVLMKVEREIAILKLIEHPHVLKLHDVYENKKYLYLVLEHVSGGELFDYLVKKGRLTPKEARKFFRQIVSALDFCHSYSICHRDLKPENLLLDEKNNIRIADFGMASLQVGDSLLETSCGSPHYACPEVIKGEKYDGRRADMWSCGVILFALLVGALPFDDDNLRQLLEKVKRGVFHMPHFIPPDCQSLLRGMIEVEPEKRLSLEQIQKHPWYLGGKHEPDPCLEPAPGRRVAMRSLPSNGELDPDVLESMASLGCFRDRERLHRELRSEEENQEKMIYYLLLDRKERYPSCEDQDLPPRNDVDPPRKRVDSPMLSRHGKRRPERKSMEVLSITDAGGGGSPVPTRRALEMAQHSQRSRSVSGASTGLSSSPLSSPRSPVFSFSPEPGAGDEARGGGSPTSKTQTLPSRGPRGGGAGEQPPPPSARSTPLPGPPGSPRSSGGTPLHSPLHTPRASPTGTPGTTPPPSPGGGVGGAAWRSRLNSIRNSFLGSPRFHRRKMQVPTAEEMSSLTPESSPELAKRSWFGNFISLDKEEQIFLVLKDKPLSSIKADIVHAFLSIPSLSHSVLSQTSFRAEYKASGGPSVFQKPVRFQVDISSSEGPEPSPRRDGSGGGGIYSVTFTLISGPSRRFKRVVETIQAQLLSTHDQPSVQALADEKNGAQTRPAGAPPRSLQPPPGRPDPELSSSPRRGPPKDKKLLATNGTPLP

Mitogen-activated protein kinase 1 (Homo sapiens), sequence (P28482 whole entry, the tested form may be a part): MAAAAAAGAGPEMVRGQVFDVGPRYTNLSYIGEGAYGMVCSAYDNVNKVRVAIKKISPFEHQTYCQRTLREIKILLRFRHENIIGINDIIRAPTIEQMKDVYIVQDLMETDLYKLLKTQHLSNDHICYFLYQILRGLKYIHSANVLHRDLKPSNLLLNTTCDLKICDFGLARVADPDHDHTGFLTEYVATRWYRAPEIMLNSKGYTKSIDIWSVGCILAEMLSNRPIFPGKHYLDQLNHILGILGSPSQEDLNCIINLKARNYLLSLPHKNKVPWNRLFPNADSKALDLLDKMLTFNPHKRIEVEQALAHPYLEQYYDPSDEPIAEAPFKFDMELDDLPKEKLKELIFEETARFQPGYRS
RAF proto-oncogene serine/threonine-protein kinase (Homo sapiens), sequence (P04049 whole entry, the tested form may be a part, canonical isoform): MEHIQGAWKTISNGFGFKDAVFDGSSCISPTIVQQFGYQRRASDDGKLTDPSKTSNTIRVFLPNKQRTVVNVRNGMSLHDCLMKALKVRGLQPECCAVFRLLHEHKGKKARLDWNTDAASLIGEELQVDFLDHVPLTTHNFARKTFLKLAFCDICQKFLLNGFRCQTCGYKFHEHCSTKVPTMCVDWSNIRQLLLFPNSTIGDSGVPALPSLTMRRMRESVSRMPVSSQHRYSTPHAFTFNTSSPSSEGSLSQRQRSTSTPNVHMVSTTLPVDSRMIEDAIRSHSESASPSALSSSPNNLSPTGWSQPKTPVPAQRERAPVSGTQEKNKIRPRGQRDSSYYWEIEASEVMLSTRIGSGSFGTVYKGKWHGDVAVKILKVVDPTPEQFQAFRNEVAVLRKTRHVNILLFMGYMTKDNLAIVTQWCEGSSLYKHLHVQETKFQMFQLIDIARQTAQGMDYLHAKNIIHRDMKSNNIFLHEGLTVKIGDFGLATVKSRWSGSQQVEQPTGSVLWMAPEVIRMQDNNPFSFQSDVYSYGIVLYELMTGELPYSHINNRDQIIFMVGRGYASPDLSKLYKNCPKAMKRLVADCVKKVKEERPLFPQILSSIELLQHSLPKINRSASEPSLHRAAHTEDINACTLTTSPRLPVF
Tyrosine-protein kinase ABL2 (Homo sapiens), sequence (P42684 whole entry, the tested form may be a part): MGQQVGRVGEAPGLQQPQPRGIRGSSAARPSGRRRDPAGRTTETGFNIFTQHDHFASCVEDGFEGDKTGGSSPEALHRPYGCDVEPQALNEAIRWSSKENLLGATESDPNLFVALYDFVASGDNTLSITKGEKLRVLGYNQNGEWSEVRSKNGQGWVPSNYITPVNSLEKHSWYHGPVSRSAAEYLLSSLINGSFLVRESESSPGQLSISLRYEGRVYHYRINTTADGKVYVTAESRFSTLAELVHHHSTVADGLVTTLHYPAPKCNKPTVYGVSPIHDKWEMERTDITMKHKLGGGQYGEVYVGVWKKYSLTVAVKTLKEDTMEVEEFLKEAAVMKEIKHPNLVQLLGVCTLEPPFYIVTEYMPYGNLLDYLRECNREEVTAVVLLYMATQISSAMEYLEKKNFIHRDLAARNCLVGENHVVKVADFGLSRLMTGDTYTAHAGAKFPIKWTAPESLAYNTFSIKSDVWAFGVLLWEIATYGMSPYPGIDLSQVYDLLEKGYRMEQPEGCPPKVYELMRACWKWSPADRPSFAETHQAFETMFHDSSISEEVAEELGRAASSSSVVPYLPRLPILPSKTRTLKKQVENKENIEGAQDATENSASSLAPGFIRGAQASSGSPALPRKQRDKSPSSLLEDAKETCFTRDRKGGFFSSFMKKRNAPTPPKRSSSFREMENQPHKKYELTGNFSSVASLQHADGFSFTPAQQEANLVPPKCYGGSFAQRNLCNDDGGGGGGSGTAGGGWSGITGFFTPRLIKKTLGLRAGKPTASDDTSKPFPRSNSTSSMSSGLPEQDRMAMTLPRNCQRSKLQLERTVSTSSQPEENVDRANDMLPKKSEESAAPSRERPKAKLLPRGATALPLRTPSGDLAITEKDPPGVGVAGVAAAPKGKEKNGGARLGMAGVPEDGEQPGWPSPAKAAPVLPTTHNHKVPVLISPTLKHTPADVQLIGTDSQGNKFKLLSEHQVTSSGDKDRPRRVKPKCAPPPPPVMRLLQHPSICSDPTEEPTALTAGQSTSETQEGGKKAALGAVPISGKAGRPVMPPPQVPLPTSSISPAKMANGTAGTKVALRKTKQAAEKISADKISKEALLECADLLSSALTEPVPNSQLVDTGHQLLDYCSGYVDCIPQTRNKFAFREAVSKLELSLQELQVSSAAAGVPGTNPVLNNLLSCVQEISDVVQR
Mitogen-activated protein kinase 3 (Homo sapiens), sequence (P27361 whole entry, the tested form may be a part): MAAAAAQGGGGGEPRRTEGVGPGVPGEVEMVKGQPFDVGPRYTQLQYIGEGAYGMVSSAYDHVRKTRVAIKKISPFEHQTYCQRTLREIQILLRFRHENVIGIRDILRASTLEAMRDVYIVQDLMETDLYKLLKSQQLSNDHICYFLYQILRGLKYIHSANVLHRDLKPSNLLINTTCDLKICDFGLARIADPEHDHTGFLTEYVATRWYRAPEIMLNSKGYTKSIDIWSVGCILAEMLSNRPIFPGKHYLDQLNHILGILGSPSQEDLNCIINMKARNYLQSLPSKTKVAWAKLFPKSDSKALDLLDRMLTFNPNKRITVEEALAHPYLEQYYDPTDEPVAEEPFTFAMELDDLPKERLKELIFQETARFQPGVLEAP
Tyrosine-protein kinase HCK (Homo sapiens), sequence (P08631 2-526 limits assumed): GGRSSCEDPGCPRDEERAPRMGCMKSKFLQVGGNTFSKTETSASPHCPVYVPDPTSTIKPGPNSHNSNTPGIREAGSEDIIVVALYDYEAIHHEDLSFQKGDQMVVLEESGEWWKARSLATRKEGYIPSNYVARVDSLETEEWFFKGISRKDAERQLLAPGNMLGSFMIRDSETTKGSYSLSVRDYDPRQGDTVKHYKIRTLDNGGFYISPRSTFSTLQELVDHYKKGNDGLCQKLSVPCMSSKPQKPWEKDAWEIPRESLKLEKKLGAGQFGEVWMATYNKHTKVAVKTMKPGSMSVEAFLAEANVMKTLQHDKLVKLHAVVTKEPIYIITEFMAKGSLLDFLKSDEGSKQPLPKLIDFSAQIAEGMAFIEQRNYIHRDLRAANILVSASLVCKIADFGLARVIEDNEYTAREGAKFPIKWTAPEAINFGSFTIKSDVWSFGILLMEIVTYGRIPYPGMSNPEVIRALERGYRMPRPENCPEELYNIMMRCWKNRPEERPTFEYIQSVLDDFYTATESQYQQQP
Epidermal growth factor receptor (Homo sapiens), sequence (P00533 whole entry, the tested form may be a part): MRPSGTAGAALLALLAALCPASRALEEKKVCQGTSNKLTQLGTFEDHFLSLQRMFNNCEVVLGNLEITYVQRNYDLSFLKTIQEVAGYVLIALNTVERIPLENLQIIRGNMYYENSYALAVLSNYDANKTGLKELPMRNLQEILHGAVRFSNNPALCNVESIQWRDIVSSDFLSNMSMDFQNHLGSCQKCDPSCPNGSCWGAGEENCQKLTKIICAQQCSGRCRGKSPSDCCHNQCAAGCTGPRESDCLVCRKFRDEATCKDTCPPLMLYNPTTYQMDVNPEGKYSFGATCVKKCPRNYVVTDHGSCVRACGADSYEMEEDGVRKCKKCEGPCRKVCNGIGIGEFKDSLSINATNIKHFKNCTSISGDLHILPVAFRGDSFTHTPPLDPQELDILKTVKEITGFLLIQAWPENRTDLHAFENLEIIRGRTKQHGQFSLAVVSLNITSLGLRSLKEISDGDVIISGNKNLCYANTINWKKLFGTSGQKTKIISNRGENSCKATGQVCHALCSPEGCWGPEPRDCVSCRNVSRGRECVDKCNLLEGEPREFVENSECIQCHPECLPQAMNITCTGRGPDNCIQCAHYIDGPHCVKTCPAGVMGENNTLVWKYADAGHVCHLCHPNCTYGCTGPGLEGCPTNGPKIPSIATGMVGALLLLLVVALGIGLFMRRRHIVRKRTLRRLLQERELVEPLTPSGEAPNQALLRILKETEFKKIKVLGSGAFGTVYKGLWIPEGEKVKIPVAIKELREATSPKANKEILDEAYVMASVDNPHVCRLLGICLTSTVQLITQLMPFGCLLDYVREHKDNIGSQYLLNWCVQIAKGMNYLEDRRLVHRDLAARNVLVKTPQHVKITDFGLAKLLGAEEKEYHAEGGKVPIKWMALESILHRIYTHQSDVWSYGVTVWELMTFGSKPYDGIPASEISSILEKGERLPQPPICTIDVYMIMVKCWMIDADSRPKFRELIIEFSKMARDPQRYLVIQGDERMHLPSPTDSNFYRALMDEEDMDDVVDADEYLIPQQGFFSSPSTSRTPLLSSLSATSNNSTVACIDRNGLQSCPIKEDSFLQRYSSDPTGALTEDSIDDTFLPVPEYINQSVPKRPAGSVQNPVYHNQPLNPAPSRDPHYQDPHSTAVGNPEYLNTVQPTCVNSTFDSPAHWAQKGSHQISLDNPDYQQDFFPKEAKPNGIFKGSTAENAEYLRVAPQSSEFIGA
Casein kinase I isoform alpha (Homo sapiens), sequence (P48729 2-337 limits assumed): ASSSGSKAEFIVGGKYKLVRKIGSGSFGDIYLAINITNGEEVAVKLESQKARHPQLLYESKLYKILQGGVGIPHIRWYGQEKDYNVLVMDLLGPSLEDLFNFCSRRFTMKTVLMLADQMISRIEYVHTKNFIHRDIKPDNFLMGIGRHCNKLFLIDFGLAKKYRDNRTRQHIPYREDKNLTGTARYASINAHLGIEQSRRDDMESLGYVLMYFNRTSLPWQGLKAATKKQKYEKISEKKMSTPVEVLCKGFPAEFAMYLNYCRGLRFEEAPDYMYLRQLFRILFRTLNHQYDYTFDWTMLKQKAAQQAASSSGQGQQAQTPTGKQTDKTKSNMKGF

Question: How did the inhibition [1] turn out when `NCCc1ccc(-c2ncnc3[nH]cnc23)cc1` was run?
Answer: Its inhibition is 48.5%.

Question: And the inhibition [2]?
Answer: The inhibition was 50.5%.

Question: And the inhibition [3]?
Answer: The inhibition was 55.5%.

Question: `Clc1ccc(C2(c3ccc(-c4ncnc5[nH]cnc45)cc3)CCNCC2)cc1` was tested. Which inhibition [4] did it give?
Answer: Its inhibition is 3.5%.

Question: How did the inhibition [5] turn out when `NC1CCN(c2ncnc3[nH]ccc23)CC1` was run?
Answer: Its inhibition is 9.5%.

Question: How did the inhibition [6] turn out when `NC1(Cc2ccc(Cl)cc2)CCN(c2ncnc3[nH]ccc23)CC1` was run?
Answer: The inhibition was 0%.

Question: What about the inhibition [7] of the same compound?
Answer: The inhibition was 0%.

Question: What about the inhibition [8] of the same compound?
Answer: Its inhibition is 0%.

Question: With `c1nc(N2CCOCC2)c2nc[nH]c2n1` as the compound, how does the inhibition [9] read?
Answer: Its inhibition is 29%.

Question: And the inhibition [10]?
Answer: The inhibition was 51.5%.
